Experimental data published in patent US7981927B2, “Steroids derivatives as selective progesterone receptor modulators” (Janssen Pharmaceutica N.V., priority 2007, dated 2011).

Test system: T47D human breast cancer cells
Assay: T47D human breast cancer cells alkaline phosphatase assay
Format: cell-based
Details: 24 h with test compound, alkaline phosphatase luminescence readout
Procedure: T47D human breast cancer cells were grown in RPMI medium without phenol red (Invitrogen) containing 10% (v/v) heat-inactivated fetal bovine serum (FBS; Hyclone), 1% (v/v) penicillin-streptomycin (Invitrogen), 1% (w/v) glutamine (Invitrogen), and […] insulin (Sigma). Incubation conditions were 37° C. in a humidified 5% (v/v) carbon dioxide environment.
The cells were plated in 96-well tissue culture plates at 10,000 cells per well in assay medium [RPMI medium without phenol red (Invitrogen) containing 5% (v/v) charcoal-treated FBS (Hyclone) and 1% (v/v) penicillin-streptomycin (Invitrogen)]. Two days later, the medium was decanted and test compound or control were added at a final concentration of 0.1% (v/v) dimethyl sulfoxide in fresh assay medium. Twenty-four hours later, an alkaline phosphatase assay was performed using a SEAP kit (BD Biosciences Clontech, Palo Alto, Calif.). Briefly, the medium was decanted and the cells were fixed for 30 minutes at room temperature with 5% (v/v) formalin (Sigma). The cells were washed once with room temperature Hank's buffered saline solution (Invitrogen). […] After 1 hour incubation at room temperature in the dark, the lysate was transferred to a white 96-well plate (Dynex) and luminescence was read using a LuminoSkan Ascent (Thermo Electron, Woburn, Mass.). […]

## CN(C)c1ccc([C@@H]2C[C@]3(C)C(=O)OCC[C@H]3[C@@H]3CCC4=CC(=O)CCC4=C23)cc1 (stereo in doubt) [compound 1, 11-(4-Dimethylamino-phenyl)-12a-methyl-3,4,4a,5,6,9,10,11,12,12a-decahydro-4bH-2-oxa-chrysene-1,8-dione]
  IC50: 750 nM

## CC#C[C@]1(O)OCC[C@H]2[C@@H]3CCC4=CC(=O)CCC4=C3[C@@H](c3ccc(N(C)C)cc3)C[C@@]21C (stereo in doubt) [compound 2, 11-(4-Dimethylamino-phenyl)-1-hydroxy-12a-methyl-1-prop-1-ynyl-1,3,4,4a,4b,5,6,9,10,11,12,12a-dodecahydro-2-oxa-chrysen-8-one]
  IC50: 33 nM
